Where “and” joins values, the source holds several entries; their conditions need not be identical. Identical values can stand only once. Counter-ions that a name gives are not always drawn.
Test system: ovarian cancer cells with (OVCAR8, OVCAR4) or without (OVSAHO, CAOV3) MYC-HSF1 amplification
Assay: Epigenetic inhibitor drug screen, cell viability (Cell Titer Blue)
Assay type: cell-based
Conditions: not given

Compound	Non Amp - AMP (POC) 10 uM [POC]
Sodium Phenylbutyrate	−19.07
CC(C)(O)/C=C/C(=O)[C@](C)(O)[C@H]1[C@H](O)C[C@@]2(C)[C@@H]3CC=C4[C@@H](C=C(O)C(=O)C4(C)C)[C@]3(C)C(=O)C[C@]12C [Cucurbitacin I]	0.02387
CO[C@@]12[C@H](COC(N)=O)C3=C(C(=O)C(C)=C(N)C3=O)N1C[C@@H]1N[C@@H]12 [Mitomycin C]	14.14

Same assay, conditions: 10 uM, 48 hrs; average relative cell viability (vs 1% DMSO) of non-amplified cells (OVSAHO, CAOV3) minus that of MYC-HSF1 amplified cells (OVCAR8, OVCAR4); positive = greater response in amplified cells

Compound	Non Amp - AMP (POC) 10 uM [POC]
O=C(/C=C/c1ccccc1)NC(NC(=S)Nc1ccc(Cl)cc1)C(Cl)(Cl)Cl (centres unmarked) [Sal 003]	−16.28
N[C@@H]1CCCN(c2c(/C=C3\SC(=O)NC3=O)cccc2-c2ccccc2)C1 [AZD1208]	10.38
CN1CCCN(C(=O)c2cccc(-c3ccc(/C=C4/C(=O)Nc5ccc(Cl)cc54)o3)c2)CC1 [CX-6258]	−7.528
O=C([O-])CCCc1ccccc1.[Na+] [Sodium 4-phenylbutyrate]	6.103
CCOC(=O)C1=CN(Cc2ccccc2)C=C(C(=O)OCC)C1c1ccccc1 [BML-278]	4.191
O=C(Nc1nc2cccc(-c3ccc(CN4CCS(=O)(=O)CC4)cc3)n2n1)C1CC1 [GLPG0634]	15.53
CN1CCN(c2ccc(-c3cccc(CN4CCOCC4)c3)cc2NC(=O)c2c[nH]c(=O)cc2C(F)(F)F)CC1 [OICR-9429]	12.58
c1nc2nc(Nc3ccc(N4CCOCC4)cc3)nc(NC3CCCCC3)c2[nH]1 [Reversine]	−6.769
Cc1cc(C)nc(SCC(=O)Nc2ncc(Cc3cccc4ccccc34)s2)n1 [SirReal2]	−3.472
Nc1ccn([C@@H]2O[C@H](CO)[C@@H](O)[C@@H]2O)c(=O)n1 [Cytarabine]	1.9
O=C([O-])[C@@]1(CCCCCCOc2ccc(Cl)cc2)CO1.[Na+] [(R)-(+)-Etomoxir sodium salt]	3.941
O=C(COc1cccc2c(=O)[nH]ccc12)c1ccccc1 [UPF 1069]	−6.052
CC(C)N(CCC(=O)c1ccc2ccccc2c1)Cc1ccccc1 [ZM 39923 HCl]	−4.611
CN(C)CCCCC(=O)Nc1ccc(NC(=S)NC(=O)c2ccc(C(C)(C)C)cc2)cc1 [Tenovin-6]	0.07933
CN(C)c1ccc(C(=O)NCCCCCC(=O)NO)cc1 [CAY10398]	48.61
Oc1nc(-c2ccc(C(F)(F)F)cc2)nc2c1CSCC2 [XAV-939]	−6.034
COc1nnc2ccc(N3CCC(c4ccc(OCCN5CCN(C)C(=O)[C@H]5C)cc4)CC3)nn12 [AZD 5153]	11.52
CCC(CC)n1ccc2c(C(=O)NCc3c(C)cc(C)[nH]c3=O)cc(C#N)cc21 [EI1]	15.27

Same assay, conditions: 10 uM, 48 hrs; average relative cell viability (vs 1% DMSO) of non-amplified cells (OVSAHO, CAOV3) minus that of MYC-HSF1 amplified cells (OVCAR8, OVCAR4); positive = greater response in amplified cells; 10 µM

Compound	Non Amp - AMP (POC) 10 uM
CCCc1cc2c(N3CCN(C4=NCC(C)(C)S4)CC3)ncnc2s1 [MI-2]	8.542 POC
O=C(CCCCCN1C(=O)c2cccc3cccc(c23)C1=O)NO [Scriptaid]	45.24 POC and 29.99 POC
CCCc1cc2c(N3CCN(C4=NCC(C)(C)S4)CC3)ncnc2s1 [MI-2 (hydrochloride)]	6.017 POC
Nc1ccccc1NC(=O)CCCCCCC(=O)Nc1ccccc1 [BML-210]	30.7 POC
N#C/C(=C\c1ccc(-c2cc(Cl)ccc2Cl)o1)C(=O)Nc1cccc2ncccc12 [AGK 2]	24.17 POC
CCCC(CCC)C(=O)O [Divalproex Sodium]	−6.451 POC

Same assay, conditions: 10 uM, 48 hrs; average relative cell viability (vs 1% DMSO) of non-amplified cells (OVSAHO, CAOV3) minus that of MYC-HSF1 amplified cells (OVCAR8, OVCAR4); positive = greater response in amplified cells; listed as AGK2, 10 µM

Compound	Non Amp - AMP (POC) 10 uM [POC]
N#C/C(=C\c1ccc(-c2cc(Cl)ccc2Cl)o1)C(=O)Nc1cccc2ncccc12 [AGK 2]	19.96

Same assay, conditions: 10 uM, 48 hrs; average relative cell viability (vs 1% DMSO) of non-amplified cells (OVSAHO, CAOV3) minus that of MYC-HSF1 amplified cells (OVCAR8, OVCAR4); positive = greater response in amplified cells; listed as BML-210(CAY10433), 10 µM

Compound	Non Amp - AMP (POC) 10 uM [POC]
Nc1ccccc1NC(=O)CCCCCCC(=O)Nc1ccccc1 [BML-210]	14.33

— patent US20250011881A1, “MYC-HSF1 DUAL AMPLIFICATION AS A BIOMARKER FOR CANCER TREATMENT” (The Trustees of Indiana University, priority 2023, published 2025)
